Laboratory results taken from patent US6737383B1, “Herbicidal oxadiazolidines” (priority 1999, dated 2004).

Legend:
bedstraw = test: Test B pre/postemergence bedstraw; type: in vivo, Galium aparine
In short: (§1)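 Response is a visual 0-to-10 score relative to untreated plants, where 0 means no effect and 10 means complete control, taken twelve to sixteen days after application. Treatments went onto soil at planting and onto foliage of 1- to 4-leaf plants, using a surfactant-containing non-phytotoxic solvent.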

blackgrass = test: Test B pre/postemergence blackgrass; type: in vivo, Alopecurus myosuroides
In short: as §1

surinam grass = test: Test B pre/postemergence surinam grass; type: in vivo, Brachiaria decumbens
In short: as §1

cocklebur = test: Test B pre/postemergence cocklebur; type: in vivo, Xanthium strumarium
In short: as §1

corn = test: Test B pre/postemergence corn; type: in vivo, Zea mays
In short: as §1

crabgrass = test: Test B pre/postemergence crabgrass; type: in vivo, Digitaria sanguinalis
In short: as §1

giant foxtail = test: Test B pre/postemergence giant foxtail; type: in vivo, Setaria faberii
In short: as §1

morningglory = test: Test B pre/postemergence morningglory; type: in vivo, Ipomoea hederacea
In short: as §1

pigweed = test: Test B pre/postemergence pigweed; type: in vivo, Amaranthus retroflexus
In short: as §1

rape = test: Test B pre/postemergence rape; type: in vivo, Brassica napus
In short: as §1

soybean = test: Test B pre/postemergence soybean; type: in vivo, Glycine max
In short: as §1

sugar beet = test: Test B pre/postemergence sugar beet; type: in vivo, Beta vulgaris
In short: as §1

velvetleaf = test: Test B pre/postemergence velvetleaf; type: in vivo, Abutilon theophrasti
In short: as §1

wheat = test: Test B pre/postemergence wheat; type: in vivo, Triticum aestivum
In short: as §1

wild oat = test: Test B pre/postemergence wild oat; type: in vivo, Avena fatua
In short: as §1

purple nutsedge = test: Test B pre/postemergence purple nutsedge; type: in vivo, Cyperus rotundus
In short: as §1

[1] = Preemergence, Rate 62 g/ha, scale of 0 to 10 where 0 is no effect and 10 is complete control
[2] = Preemergence, Rate 250 g/ha, scale of 0 to 10 where 0 is no effect and 10 is complete control
[3] = Preemergence, Rate 500 g/ha, scale of 0 to 10 where 0 is no effect and 10 is complete control
[4] = Rate 62 g/ha, Postemergence, scale of 0 to 10 where 0 is no effect and 10 is complete control
[5] = Rate 125 g/ha, Postemergence, scale 0 to 10
[6] = Rate 125 g/ha, Preemergence, scale of 0 to 10 where 0 is no effect and 10 is complete control
[7] = Rate 500 g/ha, Postemergence, scale 0 to 10, 0 no effect, 10 complete control

COC(=O)C=CCn1c(=O)on(C(=O)N(c2ccc(F)cc2)C(C)C)c1=O [Compound 263]
Bedstraw plant response rating (bedstraw; [1]): 0 | Bedstraw plant response rating (bedstraw; [2]): 0 | Plant response rating, Bedstraw (bedstraw; [3]): 0 | Bedstraw plant response rating (bedstraw; [4]): 0 | Bedstraw plant response rating (bedstraw; [5]): 0 | Bedstraw plant response rating (bedstraw; [6]): 0 | Blackgrass plant response rating (blackgrass; [1]): 0 | Blackgrass plant response rating (blackgrass; [2]): 0 | Plant response rating, Blackgrass (blackgrass; [3]): 0 | Blackgrass plant response rating (blackgrass; [4]): 0 | Blackgrass plant response rating (blackgrass; [5]): 0 | Blackgrass plant response rating (blackgrass; [6]): 0 | Plant response rating (0 to 10; 0 is no effect, 10 is complete control), Blackgrass (blackgrass; Rate 250 g/ha, Postemergence): 3 | Blackgrass plant response rating (blackgrass; [7]): 5 | B. signalgrass plant response rating (surinam grass; [1]): 0 | B. signalgrass plant response rating (surinam grass; [2]): 0 | Plant response rating, B. signalgrass (surinam grass; [3]): 0 | B. signalgrass plant response rating (surinam grass; [4]): 0 | B. signalgrass plant response rating (surinam grass; Rate 125 g/ha, Postemergence, scale 0 (no effect) to 10 (complete control)): 0 | B. signalgrass plant response rating (surinam grass; [6]): 0 | Plant response rating (0 to 10; 0 is no effect, 10 is complete control), B. signalgrass (surinam grass; Rate 250 g/ha, Postemergence): 0 | B. signalgrass plant response rating (surinam grass; [7]): 0 | Cocklebur plant response rating (cocklebur; [1]): 0 | Cocklebur plant response rating (cocklebur; [2]): 0 | Cocklebur plant response rating (cocklebur; [4]): 0 | Cocklebur plant response rating (cocklebur; [5]): 0 | Cocklebur plant response rating (cocklebur; [6]): 0 | Plant response rating (0 to 10; 0 is no effect, 10 is complete control), Cocklebur (cocklebur; Rate 250 g/ha, Postemergence): 0 | Cocklebur plant response rating (cocklebur; [7]): 0 | Corn plant response rating (corn; [1]): 0 | Corn plant response rating (corn; [2]): 0 | Plant response rating, Corn (corn; [3]): 0 | Corn plant response rating (corn; [4]): 0 | Corn plant response rating (corn; [5]): 0 | Corn plant response rating (corn; [6]): 0 | Plant response rating (0 to 10; 0 is no effect, 10 is complete control), Corn (corn; Rate 250 g/ha, Postemergence): 0 | Corn plant response rating (corn; [7]): 0 | Crabgrass plant response rating (crabgrass; [1]): 0 | Crabgrass plant response rating (crabgrass; [2]): 0 | Plant response rating, Crabgrass (crabgrass; [3]): 2 | Crabgrass plant response rating (crabgrass; [6]): 0 | Plant response rating (0 to 10; 0 is no effect, 10 is complete control), Crabgrass (crabgrass; Rate 250 g/ha, Postemergence): 0 | Crabgrass plant response rating (crabgrass; [7]): 2 | Giant foxtail plant response rating (giant foxtail; [1]): 2 | Giant foxtail plant response rating (giant foxtail; [2]): 9 | Plant response rating, Giant foxtail (giant foxtail; [3]): 9 | Giant foxtail plant response rating (giant foxtail; [6]): 9 | Plant response rating (0 to 10; 0 is no effect, 10 is complete control), Giant foxtail (giant foxtail; Rate 250 g/ha, Postemergence): 0 | Giant foxtail plant response rating (giant foxtail; [7]): 3 | Morningglory plant response rating (morningglory; [1]): 0 | Morningglory plant response rating (morningglory; [2]): 0 | Plant response rating, Morningglory (morningglory; [3]): 0 | Morningglory plant response rating (morningglory; [6]): 0 | Plant response rating (0 to 10; 0 is no effect, 10 is complete control), Morningglory (morningglory; Rate 250 g/ha, Postemergence): 4 | Morningglory plant response rating (morningglory; [7]): 7 | Redroot pigweed plant response rating (pigweed; [1]): 0 | Redroot pigweed plant response rating (pigweed; [2]): 0 | Plant response rating, Redroot pigweed (pigweed; [3]): 0 | Redroot pigweed plant response rating (pigweed; [6]): 0 | Plant response rating (0 to 10; 0 is no effect, 10 is complete control), Redroot pigweed (pigweed; Rate 250 g/ha, Postemergence): 0 | Redroot pigweed plant response rating (pigweed; [7]): 0 | Rape plant response rating (rape; [1]): 0 | Rape plant response rating (rape; [2]): 0 | Plant response rating, Rape (rape; [3]): 0 | Rape plant response rating (rape; [6]): 0 | Plant response rating (0 to 10; 0 is no effect, 10 is complete control), Rape (rape; Rate 250 g/ha, Postemergence): 0 | Rape plant response rating (rape; [7]): 0 | Soybean plant response rating (soybean; [1]): 0 | Soybean plant response rating (soybean; [2]): 0 | Plant response rating, Soybean (soybean; [3]): 0 | Soybean plant response rating (soybean; [6]): 0 | Soybean plant response rating (soybean; [7]): 1 | Sugarbeets plant response rating (sugar beet; [1]): 0 | Sugarbeets plant response rating (sugar beet; [2]): 0 | Plant response rating, Sugarbeets (sugar beet; [3]): 0 | Sugarbeets plant response rating (sugar beet; [6]): 0 | Sugarbeets plant response rating (sugar beet; [7]): 0 | Velvetleaf plant response rating (velvetleaf; [1]): 0 | Velvetleaf plant response rating (velvetleaf; [2]): 0 | Plant response rating, Velvetleaf (velvetleaf; [3]): 3 | Velvetleaf plant response rating (velvetleaf; [6]): 0 | Velvetleaf plant response rating (velvetleaf; [7]): 2 | Wheat plant response rating (wheat; [1]): 0 | Wheat plant response rating (wheat; [2]): 0 | Plant response rating, Wheat (wheat; [3]): 0 | Wheat plant response rating (wheat; [6]): 0 | Wheat plant response rating (wheat; [7]): 2 | Wild oats plant response rating (wild oat; [1]): 0 | Wild oats plant response rating (wild oat; [2]): 0 | Plant response rating, Wild oats (wild oat; [3]): 0 | Wild oats plant response rating (wild oat; [6]): 0 | Wild oats plant response rating (wild oat; [7]): 0 | Nutsedge plant response rating (purple nutsedge; [1]): 0 | Nutsedge plant response rating (purple nutsedge; [2]): 0 | Plant response rating, Nutsedge (purple nutsedge; [3]): 0 | Nutsedge plant response rating (purple nutsedge; [6]): 0 | Plant response rating (0 to 10; 0 is no effect, 10 is complete control), Nutsedge (purple nutsedge; Rate 250 g/ha, Postemergence): 0 | Nutsedge plant response rating (purple nutsedge; [7]): 0
